Reference: patent US20030013078A1, “HIV-1 reporter viruses and their use in assaying anti-viral compounds” (priority 2000, published 2003)

Experiments:
Format in all cases: cell-based, HIV-1
NL4Rluc = assay: Inhibition of NL4Rluc reporter virus replication in MT-2 #18 cells (renilla luciferase activity); details: Human immunodeficiency virus 1, read-out: EC50, inhibition of viral replication
Method: (§1) MT-2 #18 cells were pelleted and infected with virus stocks at a multiplicity of infection (MOI) of 0.01 at 37° C. for 2hrs. Viruses were removed and cells were washed twice with 1×PBS before re-suspending in a final concentration of 10,000 cells/100 uL. Infectivity and drug sensitivity assays were carried out in 96 well tissue culture plates, and kinetic studies were carried out in T-25 flasks. Cell supernatants were harvested on day 0, 2, 3, 5 or 6, and passaged virus was harvested on day 2 or 3. The activity for the capsid protein p24 was analyzed according to manufacturer's protocol utilizing the Zeptometrix Retrotek product (Zeptometrix Incorporated, Buffalo, N.Y.).
(§2) Large volume cultures of MT-2 #18 cells were prepared and kept at a concentration of less than 0.5×10^6 cells per milliliter in RPMI media with 10% fetal calf serum. Test compounds were plated into a 96 well tissue culture treated clear bottom black plates (Corning Incorporated, Corning, N.Y.) at a concentration of 3 mM in 20 microliters of dionized water and 5% dimethyl sulfoxide. […]
(§3) Renilla luciferase activity was measured using the Promega Dual Luciferase Reporter kit (Promega Corp., Madison, Wis.). […] Following the substrate addition, plates were immediately sealed and read for 5 seconds per well in a Wallac Microbeta 1450 (Perkin-Elmer Wallac Incorporated, Gaithersburg, Md.) in the luminescence mode. […]

JRFNRLuc = assay: Inhibition of JRFNRLuc reporter virus replication in MT-2 #18 cells (renilla luciferase activity); details: Human immunodeficiency virus 1, read-out: EC50, inhibition of viral replication
Method: as §1, §2, §3

JRFNFLuc = assay: Inhibition of JRFNFLuc reporter virus infection in MT-2 #18 cells (firefly luciferase activity); details: for EC50: Human immunodeficiency virus 1, read-out: EC50, inhibition of viral replication
Method: as §1
Large volume cultures of MT-2 #18 cells were prepared and kept at a concentration of less than 0.5×10^6 cells per milliliter in RPMI media with 10% fetal calf serum. Test compounds were plated into a 96 well tissue culture treated clear bottom black plates (Corning Incorporated, Corning, N.Y.) at a concentration of 3 mM in 20 microliters of dionized water and 5% dimethyl sulfoxide. MT-2 #18 cells were pelleted via low speed centrifugation and re-suspended in fresh media. Reporter viruses were added to the fresh media and cells to obtain the appropriate MOI of 0.01 and a cell concentration of 1×10^4 in 160 microliters. Twenty microliters per well of 2×complete modified eagle's media was then added to compensate for the dionized water volume. 180 microliters of this mixture is then added to each test compound well and control wells. Following a 5 to 6 day incubation at 37° C., media was aspirated from the wells utilizing a 12-channel manifold.
The replication ability of the NL4Rluc and JRFNRLuc viruses were then compared to that of the JRFNFLuc virus. JRFNFLuc differs from JRFNRLuc in that it encodes the firefly luciferase gene instead of the renilla luciferase gene. JRFNFLuc was constructed in a fashion similar to that previously reported (Chen et al., 1994). Infection of T-cell lines by JRFNFLuc was carried out exactly as that was done for NL4Rluc and JRFNRLuc viruses. […] Upon passing the day 6 post infection JRFNFLuc supernatant onto uninfected MT-2 #18 cells, no firefly luciferase activity or p24 production could be detected up to seven days post inoculation (data not shown). […] The finding that this virus was not capable of inhibition by a late stage HIV-1 replication cycle inhibitor is further evidence of it not being able to replicate.

JRFNSEAP = assay: Inhibition of JRFNSEAP reporter virus replication in MT-2 #18 cells (SEAP activity); details: Human immunodeficiency virus 1, provirus JRFNSEAP (CCR5-tropic), MOI 0.01, read-out: EC50, inhibition of viral replication
Method: as §1, §2
Secreted placental alkaline phosphatase (SEAP) activity was measured using the a 1,2 dioxetane alkaline phosphatase substrate called CSPD (Tropix PE Applied Biosystems, Bedford, Mass.). […] Light emission can be measured utilizing a scintillation counter or a luminometer. […]

SMILES	EC50 (NL4Rluc) [nM]	EC50 (JRFNRLuc) [nM]	Non-inhibiting concentration on JRFNFLuc relative to the EC50 on the replication competent JRFNRLuc (JRFNFLuc; 10 uM versus JRFNRLuc)	EC50 (JRFNFLuc) [nM]	Inhibition of JRFNFLuc virus (JRFNFLuc; at 10 uM)	EC50 (JRFNSEAP) [nM]
CC(C)CN(C[C@@H](O)[C@H](Cc1ccccc1)NC(=O)O[C@H]1CCOC1)S(=O)(=O)c1ccc(N)cc1 [Amprenavir]	19.4	6.9	over 1000 fold	> 10000	unable to inhibit	21.5
O=C1Nc2ccc(Cl)cc2[C@@](C#CC2CC2)(C(F)(F)F)O1 [Efavirenz]	0.36	0.12	–	0.18	–	0.1
